Data: ChEMBL document CHEMBL3091384, “Chemical probes to study ADP-ribosylation: synthesis and biochemical evaluation of inhibitors of the human ADP-ribosyltransferase ARTD3/PARP3” (J Med Chem, 2013)

Experiments:
[1] = tested on: Poly [ADP-ribose] polymerase 14, ARTD8/PARP14 (Homo sapiens)
Homo sapiens = species: Homo sapiens; test: Binding affinity to […] (unknown origin) assessed as change in melting temperature by thermal stabilization assay
[2] = biological target: Poly [ADP-ribose] polymerase 2 (Homo sapiens) (UniProt Q9UGN5)
[3] = biological target: T1, Protein mono-ADP-ribosyltransferase PARP3 (Homo sapiens) (UniProt Q9Y6F1)
T1 sequence (whole entry): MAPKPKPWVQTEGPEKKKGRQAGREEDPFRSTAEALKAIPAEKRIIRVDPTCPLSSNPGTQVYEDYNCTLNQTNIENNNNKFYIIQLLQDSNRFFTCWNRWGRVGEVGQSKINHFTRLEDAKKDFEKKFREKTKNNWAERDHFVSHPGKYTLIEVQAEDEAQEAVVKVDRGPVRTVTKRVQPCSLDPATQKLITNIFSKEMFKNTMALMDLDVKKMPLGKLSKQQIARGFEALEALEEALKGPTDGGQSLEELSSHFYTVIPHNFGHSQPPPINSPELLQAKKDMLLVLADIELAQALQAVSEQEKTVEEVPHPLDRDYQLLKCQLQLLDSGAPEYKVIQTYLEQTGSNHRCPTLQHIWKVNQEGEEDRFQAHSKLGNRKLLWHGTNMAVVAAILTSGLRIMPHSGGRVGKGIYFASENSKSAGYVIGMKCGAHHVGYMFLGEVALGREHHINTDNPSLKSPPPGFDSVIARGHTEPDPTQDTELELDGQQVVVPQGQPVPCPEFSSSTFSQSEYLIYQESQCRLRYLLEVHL

[4] = biological target: Poly [ADP-ribose] polymerase 1 (Homo sapiens, UniProt P09874)
Poly [ADP-ribose] polymerase 1, sequence (P09874 whole entry): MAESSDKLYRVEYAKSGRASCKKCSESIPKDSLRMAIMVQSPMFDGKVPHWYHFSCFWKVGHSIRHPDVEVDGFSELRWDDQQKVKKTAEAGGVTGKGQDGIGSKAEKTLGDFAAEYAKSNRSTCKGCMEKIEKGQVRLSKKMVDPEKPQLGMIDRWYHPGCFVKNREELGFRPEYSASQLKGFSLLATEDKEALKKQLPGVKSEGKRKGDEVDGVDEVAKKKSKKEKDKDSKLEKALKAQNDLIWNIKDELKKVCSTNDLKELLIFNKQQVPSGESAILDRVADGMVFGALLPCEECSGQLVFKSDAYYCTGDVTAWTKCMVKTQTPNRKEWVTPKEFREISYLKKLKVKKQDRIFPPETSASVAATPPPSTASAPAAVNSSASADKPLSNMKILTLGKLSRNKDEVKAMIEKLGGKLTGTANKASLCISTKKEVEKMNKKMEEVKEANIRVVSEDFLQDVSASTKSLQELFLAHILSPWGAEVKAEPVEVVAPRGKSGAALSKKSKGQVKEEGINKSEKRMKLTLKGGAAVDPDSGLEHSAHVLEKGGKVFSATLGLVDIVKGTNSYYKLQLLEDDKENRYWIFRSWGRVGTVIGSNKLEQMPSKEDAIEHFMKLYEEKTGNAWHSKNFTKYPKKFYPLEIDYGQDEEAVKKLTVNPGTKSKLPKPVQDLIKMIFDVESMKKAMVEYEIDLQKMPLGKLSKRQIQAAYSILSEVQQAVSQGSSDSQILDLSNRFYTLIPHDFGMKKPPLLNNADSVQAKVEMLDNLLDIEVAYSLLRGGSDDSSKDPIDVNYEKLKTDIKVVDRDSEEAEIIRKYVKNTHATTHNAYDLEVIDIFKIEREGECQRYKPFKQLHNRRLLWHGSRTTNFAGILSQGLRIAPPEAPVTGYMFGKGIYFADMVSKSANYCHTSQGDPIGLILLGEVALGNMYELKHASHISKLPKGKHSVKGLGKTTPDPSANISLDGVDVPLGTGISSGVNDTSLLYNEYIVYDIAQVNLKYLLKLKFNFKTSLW

Poly [ADP-ribose] polymerase 2 (Homo sapiens), sequence (Q9UGN5 whole entry): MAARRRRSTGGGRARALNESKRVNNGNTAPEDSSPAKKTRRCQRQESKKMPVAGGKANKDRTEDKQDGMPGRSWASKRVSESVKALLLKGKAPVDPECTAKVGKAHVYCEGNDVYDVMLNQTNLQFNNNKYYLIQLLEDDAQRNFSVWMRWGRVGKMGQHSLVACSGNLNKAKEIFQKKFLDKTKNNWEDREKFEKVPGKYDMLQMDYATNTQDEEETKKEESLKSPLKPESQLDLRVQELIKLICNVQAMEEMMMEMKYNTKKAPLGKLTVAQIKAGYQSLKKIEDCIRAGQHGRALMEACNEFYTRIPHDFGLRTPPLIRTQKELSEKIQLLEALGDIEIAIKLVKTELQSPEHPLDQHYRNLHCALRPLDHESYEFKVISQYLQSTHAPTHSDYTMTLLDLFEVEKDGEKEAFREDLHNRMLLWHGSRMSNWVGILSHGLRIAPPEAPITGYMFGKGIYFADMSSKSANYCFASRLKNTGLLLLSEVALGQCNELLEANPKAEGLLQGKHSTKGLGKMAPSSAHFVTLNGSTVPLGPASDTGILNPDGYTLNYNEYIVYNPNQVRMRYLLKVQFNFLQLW

| ΔTm [1] | ΔTm (Homo sapiens) | ΔTm [2] | ΔTm [3] | ΔTm [4] | SMILES |
| --- | --- | --- | --- | --- | --- |
| -0.77 °C | 0.39 °C | 0.33 °C | 4.95 °C | 0.88 °C | C[C@H](NC(=O)NCc1nc2ccccc2c(=O)[nH]1)c1ccccc1 |
|  | 0.35 °C |  |  |  | C[C@@H](NC(=O)CCc1nc2ccccc2c(=O)[nH]1)c1ccccc1 |
|  | 1.94 °C |  |  |  | CC(NC(=O)CCc1nc2ccccc2c(=O)[nH]1)c1ccc(S(N)(=O)=O)cc1 (racemic) |
|  | 0.5 °C |  |  |  | COC(=O)[C@H](Cc1ccccc1)NC(=O)CCc1nc2ccccc2c(=O)[nH]1 |
| 0.69 °C | 0.69 °C | 1.37 °C | 4.2 °C | 3.11 °C | O=C(CCc1nc2ccccc2c(=O)[nH]1)NCc1ccc(F)cc1 |
|  | 0.13 °C |  |  |  | C[C@H](NC(=O)CCc1nc2ccccc2c(=O)[nH]1)c1ccccc1 |
| -0.22 °C | 0.22 °C | -0.47 °C | 0.74 °C | 0.22 °C | Cc1ccc([C@H](C)NC(=O)CCc2nc3ccccc3c(=O)[nH]2)cc1C |
| 0.45 °C | 0.22 °C | 0.3 °C | 0.2 °C | 0.2 °C | O=C(CCc1nc2ccccc2c(=O)[nH]1)NC(c1ccccc1)c1ccccc1 |
| -0.7 °C | 0.08 °C | -0.17 °C | 6.25 °C | 0.41 °C | O=C(/C=C/c1nc2ccccc2c(=O)[nH]1)N[C@H](CO)Cc1ccccc1 |
|  | 0.64 °C |  |  |  | CC(NC(=O)CCc1nc2ccccc2c(=O)[nH]1)c1ccc(-n2ccnc2)cc1 (racemic) |
| 0.24 °C | 1.83 °C | 1.11 °C | 2.28 °C | 2.44 °C | O=C(CCc1nc2ccccc2c(=O)[nH]1)NC1CCCc2ccccc21 (stereo unspecified) |
| -0.05 °C | 1.37 °C | 0.21 °C | 4.27 °C | 1.56 °C | C[C@@H](NC(=O)CCCc1nc2ccccc2c(=O)[nH]1)c1ccccc1 |
| 0.32 °C | 0.11 °C | 0.33 °C | 5.94 °C | 1.37 °C | CON(C)C(=O)[C@H](Cc1ccccc1)NC(=O)CCc1nc2ccccc2c(=O)[nH]1 |
| -0.07 °C | 0.14 °C | -0.17 °C | 4.73 °C | 1.15 °C | O=C(CCc1nc2ccccc2c(=O)[nH]1)N1CCc2ccccc2C1 |
| 0.57 °C | 0.44 °C | 0.87 °C | 3.07 °C | 2 °C | Cc1ccc(C)c(C(C)NC(=O)CCc2nc3ccccc3c(=O)[nH]2)c1 (racemic) |
| 0.31 °C | 0.96 °C | 1.35 °C | 0.78 °C | 3.39 °C | O=C(CCc1nc2ccccc2c(=O)[nH]1)NCc1ccc(OC(F)F)cc1 |
|  | 0.13 °C |  |  |  | C[C@H](NC(=O)CCc1nc2ccccc2c(=O)[nH]1)c1ccccn1 |
| -0.25 °C | 0.36 °C | 0.98 °C | 0.5 °C | 0.76 °C | O=C(CCc1nc2cc(Cl)ccc2c(=O)[nH]1)N[C@H](CO)c1ccccc1 |
| -0.37 °C | 0.23 °C | -0.6 °C | 0.69 °C | 0.25 °C | C[C@H](NC(=O)CCc1nc2ccccc2c(=O)[nH]1)c1cccc(C(F)(F)F)c1 |
|  | 0.15 °C | 1.48 °C | 4.83 °C | 1.93 °C | O=C(CCc1nc(O)c2ccccc2n1)NCc1ccccn1 |
| 0.16 °C | 0.44 °C | 0.74 °C | 5.96 °C | 0.9 °C | CC(C)(C)CC(NC(=O)CCc1nc2ccccc2c(=O)[nH]1)c1ccccc1 (racemic) |
| -0.27 °C | 0.7 °C | 1.3 °C | 6.31 °C | 2.79 °C | O=C(CCc1nc2ccccc2c(=O)[nH]1)NCc1ccccc1O |
| -0.21 °C | 0.52 °C | 0.37 °C | 4.58 °C | 1.51 °C | C[C@H](NC(=O)CCCc1nc2ccccc2c(=O)[nH]1)c1ccccc1 |

| ΔTm [1] | ΔTm (Homo sapiens) | ΔTm [2] | ΔTm [3] | ΔTm [4] | SMILES |
| --- | --- | --- | --- | --- | --- |
| 0.26 °C | 0.48 °C | 1.64 °C | 5.39 °C | 1.85 °C | O=C(CCc1nc2ccccc2c(=O)[nH]1)NCc1ccccc1Cl |
| 0.04 °C | 0.01 °C | -0.01 °C | 0.43 °C | 0.31 °C | C[C@H](NC(=O)Cc1nc2ccccc2c(=O)[nH]1)c1ccccc1 |
|  | 0.54 °C | 1.14 °C | 2.96 °C | 1.45 °C | COc1ccccc1CNC(=O)CCc1nc(O)c2ccccc2n1 |
| 0.05 °C | 0.43 °C | 1.28 °C | 0.16 °C | 0.92 °C | C[C@@H](NC(=O)CCc1nc2cc(Cl)ccc2c(=O)[nH]1)c1ccccc1 |
|  | 0.35 °C |  |  |  | CC[C@@H](CO)NC(=O)CCc1nc2ccccc2c(=O)[nH]1 |
| 0 °C | 0.3 °C | 1.82 °C | 5.02 °C | 2.68 °C | CC(NC(=O)CCc1nc2ccccc2c(=O)[nH]1)c1ccncc1 (racemic) |
|  | 0.56 °C |  |  |  | C[C@@H](CO)NC(=O)CCc1nc2ccccc2c(=O)[nH]1 |
|  | 0.33 °C |  |  |  | CC[C@H](NC(=O)CCc1nc2ccccc2c(=O)[nH]1)c1ccccc1 |
| -0.28 °C | 0.52 °C | 0.77 °C | 0.45 °C | 2.17 °C | O=C(CCc1nc2ccccc2c(=O)[nH]1)NC(c1ccc(Cl)cc1)C1CC1 (racemic) |
| 0.53 °C | 1.05 °C | 1.84 °C | 3.22 °C | 2.9 °C | O=C(CCCc1nc2ccccc2c(=O)[nH]1)N[C@H](CO)c1ccccc1 |
| -0.18 °C | 0.59 °C | 1.27 °C | 4.69 °C | 1.88 °C | O=C(CCCc1nc2ccccc2c(=O)[nH]1)N[C@H]1CCc2ccccc21 |
|  | 1.08 °C |  |  |  | NC(=O)[C@H](Cc1ccccc1)NC(=O)CCc1nc2ccccc2c(=O)[nH]1 |
| -0.11 °C | 0.97 °C | 0.53 °C | 3.29 °C | 4 °C | O=C(CCc1nc2ccccc2c(=O)[nH]1)NCc1ccc([N+](=O)[O-])cc1 |
| -0.28 °C | 0.32 °C | 1.77 °C | 2.63 °C | 2.16 °C | O=C(CCc1nc2ccccc2c(=O)[nH]1)NCc1ccccc1 |
|  | 0.6 °C |  |  |  | O=C(CCc1nc2ccccc2c(=O)[nH]1)N[C@H](CO)Cc1ccccc1 |
| 0.2 °C | 0.49 °C | 1.57 °C | 6.23 °C | 2.83 °C | O=C(CCc1nc2ccccc2c(=O)[nH]1)NCCc1ccccc1 |
| 0.82 °C | 0.2 °C | 0.83 °C | 0.35 °C | 0.11 °C | O=C(CCc1nc2cc(Cl)ccc2c(=O)[nH]1)NC(c1ccccc1)c1ccccc1 |
| -0.37 °C | 0.22 °C | -0.32 °C | 1.36 °C | 0.24 °C | O=C(CCc1nc2ccccc2c(=O)[nH]1)N[C@@H](Cc1ccccc1)C(=O)O |
| -1.05 °C | 0.34 °C | -0.23 °C | 2.91 °C | 0.65 °C | O=C(NCc1ccccc1)NCc1nc2ccccc2c(=O)[nH]1 |
| 0.02 °C | 0.41 °C | 0.53 °C | 0.09 °C | 0.44 °C | O=C(CCCc1nc2ccccc2c(=O)[nH]1)NC(c1ccccc1)c1ccccc1 |
|  | 0 °C |  |  |  | CC(NC(=O)CCc1nc2ccccc2c(=O)[nH]1)c1ccccn1 (racemic) |
|  | 0.12 °C |  |  |  | C[C@@H](NC(=O)CCc1nc2ccccc2c(=O)[nH]1)c1ccccn1 |
